Results on 13 compounds are retold here after the SangsterLogP compilation.

The data set in a line: method code SF-AS, from PMID: 4083029. The note with it: pH 5.0.

Broadly, the logD is the decadic logarithm of the distribution of all forms, ionised or not, between an organic phase and buffer at a given pH. Read a high logD as higher lipophilicity.

`Cc1ccn2c(=O)c3c(nc2c1)CCCCC3`: the logD amounted to 1.86.
In turn, `O=c1c2c(nc3n1CCCCCC3)CCC2` displayed a logD of 1.61.
In turn, `Cc1ccc2nc3c(c(=O)n2c1)CCCCC3` yielded a logD of 2.07.
Compound `O=c1c2c(nc3n1CCCC3)CCCCC2` came in with a logD of 1.6.
With `Cc1cccc2nc3n(c(=O)c12)CCC3` the figure was 1.59; with `O=c1c2ccccc2nc2n1CCCC2`, 1.49; with `Cc1ccc2c(=O)n3c(nc2c1)CCCCC3`, 2.44.
With `O=c1c2c(nc3n1CCCCCC3)CCCC2` the figure was 2.13; with `Cc1cccc2nc3c(c(=O)n12)CCCCC3`, 1.91.
The compound `O=c1c2c(nc3n1CCCCCC3)CCCCC2` yielded a logD of 2.43.
On to `O=c1c2c(nc3n1CCCCC3)CCCCCC2`, for which the logD is 2.41.
In the case of `O=c1c2c(nc3ccccn13)CCCCC2` it was 1.63.
With `O=c1c2c(nc3ccccn13)CCCCCC2` the figure was 2.29.
